# Patent US8309356B2, “Pseudocomplementary oligonucleotides for targeted gene therapy” (Yale University, priority 2009, dated 2012)
# Legend:
# [1] = test system: supF reporter gene; experiment: Induced recombination / gene correction of supF reporter gene in SV40-based shuttle vector transfected into COS cells, scored in indicator bacteria; type: cell-based, monkey; details: plasmid co-mixed with binding molecule and supF1-donor DNA, two days
# Source text: In this assay, each targeting oligomer was designed, including the pair of pcPNAs, the TFO (AG30) and the bis-PNA (bis-PNA5), to bind to a selected site in the supF reporter gene contained in an SV40-based shuttle vector. In this vector construct, the supF gene has an inactivating single base pair mutation which can be corrected by recombination with a short single stranded oligonucleotide donor. The pcPNAs were designed to bind to a mixed sequence site 62 by away from the mutation, whereas the TFO and the bis-PNA were targeted to a G:C by rich polypurine site 24 by away from the mutation. The plasmid vector DNA was co-mixed with selected molecules, and the samples were transfected into monkey COS cells. Two days were allowed for repair/recombination/replication, and the episomal vector DNA was harvested for genetic analysis of the supF gene in indicator bacteria, as previously described (by Chan, et al., J. Biol. Chem., 274:11541-11548 (1999)). As expected, and consistent with other published work, the TFO (AG30) and the bis-PNAS induced gene correction in the supF gene at frequencies of 0.14% and 0.21%, respectively (FIG. 4). […] A pair of control pcPNAs (pcPNA3 and pcPNA4) with 5 mismatches each to the supF target site were ineffective, showing the sequence specificity of the process.
# [2] = test system: chromosomal GFP/IVS2-1^G→A gene; experiment: Gene correction of chromosomal GFP/IVS2-1G→A fusion gene in CHO reporter cells, GFP-positive cells quantified by FACS; type: cell-based; details: with β-globin/GFP donor DNA (or donor alone)
# Protocol: The HinDIII-NotI fragments of these plasmids, containing the GFP sequence interrupted by IVS2-1 or IVS2 wt construct, were subcloned into the multiple cloning site of pcDNA5/FRT (Invitrogen, Carlsbad, Calif.), and the resulting vectors were stably transfected into CHO-Flp host cell lines using the Flp-In System according to manufacturer's instructions (Invitrogen, Carlsbad Calif.). […] The resulting CHO-GFP/IVS2-1^G→A cells and control CHO-GFP/IVS2-1^WT cells were grown in Ham's F12 media supplemented with 10% FBS and 2 mM L-glutamine.
# 1×10^6 cells in 100 μl of media were mixed with selected pcPNAs (6 μM) and GFP-DNA (12 μM) oligonucleotides and electroporated in 0.4 cm cuvettes using a Bio-Rad Gene Pulser (280V, […], Hercules, Calif.). Cells were replated in 60 mm dishes following electroporation and allowed to expand to approximately 90% confluency (2-3 days). […] Two days later as indicated, cells were then visualized via fluorescence microscopy or analyzed by FACS.
# Cells were visualized using a Zeiss Axiovert 200 (Thornwood, N.Y.) fluorescent microscope at 100× and 200× magnification. […] Cells were analyzed using a Becton Dickinson FACS-Calibur flow cytometer (Franklin Lakes, N.J.). […] Collected data were then analyzed using the FlowJo software (Tree Star Inc., Ashland, Oreg.). […]
Substance,Frequency of gene correction in the supF gene (recombination frequency) [1] [%],"Frequency of gene correction ([2]; S-phase synchronized cells, SAHA, single treatment) [%]","Frequency of gene correction ([2]; asynchronous CHO-GFP/IVS2-1G→A cells, single electroporation, no additive) [%]"
AGGAAGGGGGGGGTGGTGGGGGAGGGGGAG (chemistry not given here) [AG30],0.14,,
"GTTCAGCGTGTCCGGCGAGGGCGAGGTGAGTCTATGGGACCCTTGATGTTT (listed as DNA, chemistry not given here) [GFP-donor DNA]",,0.29,0.005
"JJJJJTTJJT-O-O-O-TCCTTCCCCC-(Lys)3 (JJJJJTTJJT-O-O-O-TCCTTCCCCC-(Lys)_{3}; as printed in the source, key not given here) [Bis-PNA5]",0.21,,
